Read-outs that look alike come from different tables or passages of the source. Peptide text beside a SMILES is read from it.
How the values were obtained:
[1] = system: A549 lung adenocarcinoma cell line; experiment: Cell viability assay (MTT); assay type: cell-based, human; details: MTT
Protocol: (§1) 10% fetal bovine serum and 1% penicillin-streptomycin (Thermo Fisher Scientific, Waltham, MA, USA). The cultures were kept at 37°C in a 5% CO2 atmosphere incubator (Thermo Fisher Scientific, Waltham, MA, USA) and split every two to three days to new culture flasks. Cells no older than 20 passages were used for experiments.
(§2) For splitting, the cell culture media was aspirated, the cells were washed with 0.01 M phosphate buffered saline (PBS, Gibco, Thermo Fisher Scientific, Waltham, MA, USA) and trypsin-EDTA (trypsin - ethylene diamine tetraacetic acid, Fisher scientific, UK) was added to the cell layer to detach them from the flask surface. After incubation for 2 min at 37°C, cells were resuspended with an equal volume of DMEM media and centrifuged at 310 g for 5 min at 4°C. After removal of the supernatant the cells were resuspended in DMEM cell media and split into new cell culture flasks at a 1/3 to 1/5 ratio.
(§3) Determination of the anticancer peptides half effective concentration (EC50) was performed by a 3-(4,5-dimethylthiazol-2-yl)-2,5-diphenyltetrazolium bromide (MTT) assay, as described elsewhere21. Briefly, […] were seeded in each well of a 96-well plate and left to adhere and […]
(§4) sulfoxide (DMSO, Fisher Scientific, UK) at an intermediate concentration of 1 mM. The peptides were then diluted in a 2-fold dilution series starting at 100 μM with DMEM culture media. Cells were incubated with the peptide solutions for 24 h. After this time, the cell media was removed and the cells were incubated for 1 h with a 0.5 mg mL−1 MTT solution to allow enough time for formazan crystal formation (Sigma Aldrich, Steinheim, Germany). The supernatant was removed and 100 μL of DMSO were added into each well to resuspend the formazan crystals.
(§5) After manually shaking the plates to completely dissolve the crystals, the absorbance was measured at 540 nm in a Tecan Infinity M1000 spectrophotometer. The cell viability was determined based on the quantification of the color intensity in each culture well, considering the absorbance obtained by the control media without peptides as a 100% survival. The resultant sigmoidal curves were analyzed with the drc22 R package using a log-logistic model

[2] = system: MCF7 breast adenocarcinoma cell line; experiment: Cell viability assay (MTT); assay type: cell-based, human
Protocol: as §1, §2, §3, §4, §5

[3] = system: noncancer HDMEC primary cells (human dermal microvascular endothelial cells); experiment: Cell viability assay (MTT); assay type: cell-based; details: Table S2; noncancer primary cells; MTT, 24 h; mean ± sd; N = 2 independent measurements with six technical replicates each (Figs S6-S8)
Protocol: as §1, §2, §3, §4, §5

[4] = system: human erythrocytes; experiment: Hemolysis assay; assay type: cell-based; details: red cells of human, 1 h
Protocol: Human erythrocytes were freshly ordered at the Blutspende Zürich. Erythrocytes were washed 3 times with a […] phosphate buffered saline (PBS, Gibco, Thermo Fisher Scientific, Waltham, MA, USA) solution centrifuging at 800 g for 10 min or until the supernatant appeared clear to remove the blood plasma. A 5% v/v erythrocytes : PBS solution was prepared for direct use. For HC50 determination, peptides were dissolved in PBS at an intermediate concentration of 1 mM. A dilution series of the peptide from 200 to 6.25 μM was plated in a round-bottomed 96-well plate in triplicates, with a volume of 50 μL per well. PBS buffer and a solution of 0.1% Triton-X-100 (Fisher Chemical, Loughborough, UK) in PBS were employed as negative and positive controls, respectively. 50 μL of the 5% erythrocyte solution were added in each well and the plates were incubated at 37°C for 1 h. After this time, 100 μL PBS were added to each well and plates were centrifuged at 800 g for 10 min. 100 μL of the supernatant were transferred to a flat-bottomed 96-well plate and the absorbance was measured at 540 nm in a Tecan Infinity M1000 spectrophotometer plate reader. The hemolysis percentage was calculated, considering the absorbance values of the Triton and PBS wells as 100% and 0% hemolysis, respectively.
The resultant sigmoidal curves were analyzed with the drc22 R package using a log-logistic model with 3 fixed parameters to obtain the HC50 values. […]
NCI-60 screening procedure […]
Each peptide was tested in a 5-concentration assay, starting at 10^-4 M and diluting 10-fold to the lowest 10^-8 M concentration. The peptides were incubated for 48 h and the cell concentration was assayed by using the sulforhodamine B assay25 and optical density measurements. The growth inhibition (GI50) value24, measures the growth inhibitory power of the drug agent. The GI50 value is the concentration of the test drug for which the condition in Eq. S1 is met, where T is the optical density of the test well after a 48-h exposure to the peptide, T0 the optical density before applying the peptide drug and C the control optical density of a well where no peptide was applied.

[5] = Table S2, 24 h, mean ± sd, N = 2 independent measurements with six technical replicates each (Figs S6-S8), read-out: A549 EC50 /µM
[6] = Table S2, 24 h, mean ± sd, N = 2 independent measurements with six technical replicates each (Figs S6-S8)

CC[C@H](C)[C@H](NC(=O)[C@H](CCC(N)=O)NC(=O)[C@H](Cc1ccccc1)NC(=O)[C@H](C)NC(=O)[C@H](CCCCN)NC(=O)[C@H](CCCCN)NC(=O)[C@H](Cc1ccc(O)cc1)NC(=O)[C@H](Cc1c[nH]c2ccccc12)NC(=O)[C@@H](NC(=O)[C@H](CCCCN)NC(=O)[C@@H](NC(=O)[C@H](CCCCN)NC(=O)[C@H](CCCCN)NC(=O)[C@H](Cc1ccccc1)NC(=O)[C@@H](NC(=O)[C@@H](N)CCC(N)=O)[C@@H](C)CC)C(C)C)[C@@H](C)O)C(=O)N[C@@H](CC(C)C)C(=O)NCC(=O)N[C@@H](CCCNC(=N)N)C(=O)N[C@@H](CC(C)C)C(N)=O [Off2.6] (H-QIFKKVKTWYKKAFQILGRL-NH2)
EC50 [1, 5]: 12.4 ± 0.1 µM
EC50 [2, 6]: 9.3 ± 0.2 µM
EC50 [3]: 21 ± 2 µM
Eryhtr. HC50 /µM [4]: > 100 µM

CC[C@H](C)[C@H](NC(=O)[C@H](CC(C)C)NC(=O)[C@@H](N)Cc1c[nH]cn1)C(=O)N[C@@H](Cc1c[nH]cn1)C(=O)N[C@@H](CCCNC(=N)N)C(=O)N[C@@H](CC(C)C)C(=O)N[C@@H](Cc1c[nH]cn1)C(=O)N[C@H](C(=O)N[C@@H](Cc1ccc(O)cc1)C(=O)N[C@@H](Cc1c[nH]c2ccccc12)C(=O)N[C@@H](Cc1c[nH]cn1)C(=O)N[C@@H](CCCCN)C(=O)N1CCC[C@H]1C(=O)N[C@@H](Cc1c[nH]c2ccccc12)C(=O)N[C@@H](Cc1c[nH]cn1)C(=O)N[C@@H](Cc1ccc(O)cc1)C(=O)N[C@@H](CC(C)C)C(=O)NCC(=O)N[C@@H](CCCCN)C(=O)N[C@@H](CC(C)C)C(N)=O)[C@@H](C)O [Off2.9] (H-HLIHRLHTYWHKPWHYLGKL-NH2)
EC50 [1, 5]: > 100 µM
EC50 [2, 6]: > 100 µM
EC50 [3]: 135 ± 2 µM
Eryhtr. HC50 /µM [4]: > 200 µM

CC[C@H](C)[C@H](NC(=O)[C@@H](N)CCCCN)C(=O)N[C@@H](Cc1ccccc1)C(=O)N[C@@H](CCCCN)C(=O)N[C@@H](CCCCN)C(=O)N[C@@H](Cc1ccccc1)C(=O)N[C@@H](CCCCN)C(=O)N[C@@H](CC(=O)O)C(=O)N[C@@H](Cc1c[nH]c2ccccc12)C(=O)N[C@@H](Cc1ccccc1)C(=O)N[C@@H](CCCCN)C(=O)N[C@@H](CCCCN)C(=O)N[C@@H](C)C(=O)N[C@@H](Cc1ccccc1)C(=O)N[C@@H](Cc1c[nH]cn1)C(=O)N[C@H](C(=O)N[C@@H](CC(C)C)C(=O)NCC(=O)N[C@@H](CCCCN)C(=O)N[C@H](C(N)=O)C(C)C)C(C)C [Off2.5] (H-KIFKKFKDWFKKAFHVLGKV-NH2)
EC50 [1, 5]: 14.8 ± 0.7 µM
EC50 [2, 6]: 10.4 ± 0.8 µM
EC50 [3]: 22 ± 1 µM
Eryhtr. HC50 /µM [4]: > 100 µM

CC[C@H](C)[C@H](NC(=O)[C@H](CC(C)C)NC(=O)[C@@H](N)CCC(N)=O)C(=O)N[C@@H](Cc1c[nH]cn1)C(=O)N[C@@H](CCCCN)C(=O)N[C@H](C(=O)N[C@@H](CCCNC(=N)N)C(=O)N[C@H](C(=O)N[C@@H](Cc1c[nH]c2ccccc12)C(=O)N[C@@H](Cc1ccc(O)cc1)C(=O)N[C@@H](CCCNC(=N)N)C(=O)N[C@@H](CCCCN)C(=O)N[C@@H](C)C(=O)N[C@@H](Cc1c[nH]c2ccccc12)C(=O)N[C@@H](Cc1c[nH]cn1)C(=O)N[C@H](C(=O)N[C@@H](CC(C)C)C(=O)NCC(=O)N[C@@H](CCCCN)C(=O)N[C@H](C(N)=O)C(C)C)C(C)C)[C@@H](C)O)[C@@H](C)CC [Off2.2.2] (H-QLIHKIRTWYRKAWHVLGKV-NH2)
EC50 [1, 5]: 20 ± 2 µM
EC50 [2, 6]: 13 ± 1 µM
EC50 [3]: 28 ± 3 µM
Eryhtr. HC50 /µM [4]: > 200 µM

CC[C@H](C)[C@H](NC(=O)[C@H](CC(C)C)NC(=O)[C@H](CCCCN)NC(=O)[C@H](Cc1ccccc1)NC(=O)[C@@H]1CCCN1C(=O)[C@H](CCCCN)NC(=O)[C@H](Cc1c[nH]cn1)NC(=O)[C@H](Cc1ccccc1)NC(=O)[C@H](Cc1c[nH]c2ccccc12)NC(=O)[C@@H](NC(=O)[C@H](CCCCN)NC(=O)[C@H](CC(C)C)NC(=O)[C@H](Cc1c[nH]cn1)NC(=O)[C@H](CCCNC(=N)N)NC(=O)[C@@H](NC(=O)[C@H](Cc1ccc(O)cc1)NC(=O)[C@@H](N)Cc1c[nH]cn1)[C@@H](C)CC)[C@@H](C)O)C(=O)NCC(=O)N[C@@H](CCCCN)C(=O)N[C@H](C(N)=O)C(C)C [Off2.4] (H-HYIRHLKTWFHKPFKLIGKV-NH2)
EC50 [1, 5]: > 100 µM
EC50 [2, 6]: > 100 µM
EC50 [3]: 169 ± 28 µM
Eryhtr. HC50 /µM [4]: > 200 µM

CC(C)C[C@H](NC(=O)[C@H](Cc1c[nH]cn1)NC(=O)[C@H](Cc1c[nH]c2ccccc12)NC(=O)[C@H](C)NC(=O)[C@H](CCCCN)NC(=O)[C@H](CCCNC(=N)N)NC(=O)[C@H](Cc1ccc(O)cc1)NC(=O)[C@H](Cc1c[nH]c2ccccc12)NC(=O)[C@@H](NC(=O)[C@H](CCCNC(=N)N)NC(=O)[C@@H](NC(=O)[C@H](CCCCN)NC(=O)[C@H](CCCCN)NC(=O)[C@H](CC(C)C)NC(=O)[C@H](CC(C)C)NC(=O)[C@@H](N)CCC(N)=O)C(C)C)[C@@H](C)O)C(=O)N[C@@H](Cc1ccc(O)cc1)C(=O)NCC(=O)N[C@@H](CCCCN)C(=O)N[C@H](C(N)=O)C(C)C [Off2.2.5] (H-QLLKKVRTWYRKAWHLYGKV-NH2)
EC50 [1, 5]: 29.3 ± 0.9 µM
EC50 [2, 6]: 16 ± 2 µM
EC50 [3]: 27.2 ± 0.5 µM
Eryhtr. HC50 /µM [4]: > 200 µM

CC(C)C[C@H](NC(=O)[C@H](CCCNC(=N)N)NC(=O)CNC(=O)[C@H](CC(C)C)NC(=O)[C@@H](NC(=O)[C@H](CCCCN)NC(=O)[C@H](Cc1c[nH]c2ccccc12)NC(=O)[C@H](Cc1ccc(O)cc1)NC(=O)[C@H](CCCNC(=N)N)NC(=O)[C@H](CCCCN)NC(=O)[C@H](Cc1ccc(O)cc1)NC(=O)[C@@H](NC(=O)[C@@H](NC(=O)[C@H](CCCCN)NC(=O)[C@H](Cc1ccccc1)NC(=O)[C@H](Cc1c[nH]cn1)NC(=O)[C@H](CCCCN)NC(=O)[C@H](CC(C)C)NC(=O)[C@H](Cc1ccccc1)NC(=O)[C@@H](N)CCCNC(=N)N)[C@@H](C)O)C(C)C)C(C)C)C(N)=O [Off8] (H-RFLKHFKTVYKRYWKVLGRL-NH2)
EC50 [1, 5]: 17 ± 4 µM
EC50 [2, 6]: 11.9 ± 0.1 µM
EC50 [3]: 14.3 ± 0.2 µM
Eryhtr. HC50 /µM [4]: 144 ± 4 µM

CC[C@H](C)[C@H](NC(=O)[C@@H](NC(=O)[C@H](CC(=O)O)NC(=O)[C@H](Cc1ccccc1)NC(=O)[C@H](CC(C)C)NC(=O)CN)C(C)C)C(=O)NCC(=O)N[C@@H](CO)C(=O)N[C@@H](CCC(N)=O)C(=O)N[C@@H](C)C(=O)NCC(=O)NCC(=O)N[C@@H](C)C(=O)N[C@@H](C)C(=O)N1CCC[C@H]1C(=O)N[C@@H](Cc1c[nH]cn1)C(=O)N[C@@H](Cc1ccccc1)C(=O)N[C@@H](CC(C)C)C(=O)NCC(N)=O [Helical4] (H-GLFDVIGSQAGGAAPHFLG-NH2; N-terminus assumed)
EC50 ([1]; 10^4 cells per well, 24 h with peptide, 2-fold dilution series from 100 µM in DMEM, absorbance 540 nm, mean ± std, N = 3, read-out: A549 EC50/µM): > 50 µM
EC50 ([2]; 10^4 cells per well, 24 h with peptide, 2-fold dilution series from 100 µM in DMEM, absorbance 540 nm, mean ± std, N = 3): > 50 µM

Reference: publication PMC6677754, “In silico design and optimization of selective membranolytic anticancer peptides” (Scientific Reports, 2019)
